Data on 22 molecules can be found in patent US8691865B2 (AbbVie Inc., priority 2008, dated 2014).

The first experiment deals with human Cav2.2 (Homo sapiens, UniProt Q00975). Briefly: Assessment of calcium channel activity using FLIPR (Ca2+ influx in IMR32 cells). The experiment is classed as cell-based.
human Cav2.2, sequence (Q00975 whole entry): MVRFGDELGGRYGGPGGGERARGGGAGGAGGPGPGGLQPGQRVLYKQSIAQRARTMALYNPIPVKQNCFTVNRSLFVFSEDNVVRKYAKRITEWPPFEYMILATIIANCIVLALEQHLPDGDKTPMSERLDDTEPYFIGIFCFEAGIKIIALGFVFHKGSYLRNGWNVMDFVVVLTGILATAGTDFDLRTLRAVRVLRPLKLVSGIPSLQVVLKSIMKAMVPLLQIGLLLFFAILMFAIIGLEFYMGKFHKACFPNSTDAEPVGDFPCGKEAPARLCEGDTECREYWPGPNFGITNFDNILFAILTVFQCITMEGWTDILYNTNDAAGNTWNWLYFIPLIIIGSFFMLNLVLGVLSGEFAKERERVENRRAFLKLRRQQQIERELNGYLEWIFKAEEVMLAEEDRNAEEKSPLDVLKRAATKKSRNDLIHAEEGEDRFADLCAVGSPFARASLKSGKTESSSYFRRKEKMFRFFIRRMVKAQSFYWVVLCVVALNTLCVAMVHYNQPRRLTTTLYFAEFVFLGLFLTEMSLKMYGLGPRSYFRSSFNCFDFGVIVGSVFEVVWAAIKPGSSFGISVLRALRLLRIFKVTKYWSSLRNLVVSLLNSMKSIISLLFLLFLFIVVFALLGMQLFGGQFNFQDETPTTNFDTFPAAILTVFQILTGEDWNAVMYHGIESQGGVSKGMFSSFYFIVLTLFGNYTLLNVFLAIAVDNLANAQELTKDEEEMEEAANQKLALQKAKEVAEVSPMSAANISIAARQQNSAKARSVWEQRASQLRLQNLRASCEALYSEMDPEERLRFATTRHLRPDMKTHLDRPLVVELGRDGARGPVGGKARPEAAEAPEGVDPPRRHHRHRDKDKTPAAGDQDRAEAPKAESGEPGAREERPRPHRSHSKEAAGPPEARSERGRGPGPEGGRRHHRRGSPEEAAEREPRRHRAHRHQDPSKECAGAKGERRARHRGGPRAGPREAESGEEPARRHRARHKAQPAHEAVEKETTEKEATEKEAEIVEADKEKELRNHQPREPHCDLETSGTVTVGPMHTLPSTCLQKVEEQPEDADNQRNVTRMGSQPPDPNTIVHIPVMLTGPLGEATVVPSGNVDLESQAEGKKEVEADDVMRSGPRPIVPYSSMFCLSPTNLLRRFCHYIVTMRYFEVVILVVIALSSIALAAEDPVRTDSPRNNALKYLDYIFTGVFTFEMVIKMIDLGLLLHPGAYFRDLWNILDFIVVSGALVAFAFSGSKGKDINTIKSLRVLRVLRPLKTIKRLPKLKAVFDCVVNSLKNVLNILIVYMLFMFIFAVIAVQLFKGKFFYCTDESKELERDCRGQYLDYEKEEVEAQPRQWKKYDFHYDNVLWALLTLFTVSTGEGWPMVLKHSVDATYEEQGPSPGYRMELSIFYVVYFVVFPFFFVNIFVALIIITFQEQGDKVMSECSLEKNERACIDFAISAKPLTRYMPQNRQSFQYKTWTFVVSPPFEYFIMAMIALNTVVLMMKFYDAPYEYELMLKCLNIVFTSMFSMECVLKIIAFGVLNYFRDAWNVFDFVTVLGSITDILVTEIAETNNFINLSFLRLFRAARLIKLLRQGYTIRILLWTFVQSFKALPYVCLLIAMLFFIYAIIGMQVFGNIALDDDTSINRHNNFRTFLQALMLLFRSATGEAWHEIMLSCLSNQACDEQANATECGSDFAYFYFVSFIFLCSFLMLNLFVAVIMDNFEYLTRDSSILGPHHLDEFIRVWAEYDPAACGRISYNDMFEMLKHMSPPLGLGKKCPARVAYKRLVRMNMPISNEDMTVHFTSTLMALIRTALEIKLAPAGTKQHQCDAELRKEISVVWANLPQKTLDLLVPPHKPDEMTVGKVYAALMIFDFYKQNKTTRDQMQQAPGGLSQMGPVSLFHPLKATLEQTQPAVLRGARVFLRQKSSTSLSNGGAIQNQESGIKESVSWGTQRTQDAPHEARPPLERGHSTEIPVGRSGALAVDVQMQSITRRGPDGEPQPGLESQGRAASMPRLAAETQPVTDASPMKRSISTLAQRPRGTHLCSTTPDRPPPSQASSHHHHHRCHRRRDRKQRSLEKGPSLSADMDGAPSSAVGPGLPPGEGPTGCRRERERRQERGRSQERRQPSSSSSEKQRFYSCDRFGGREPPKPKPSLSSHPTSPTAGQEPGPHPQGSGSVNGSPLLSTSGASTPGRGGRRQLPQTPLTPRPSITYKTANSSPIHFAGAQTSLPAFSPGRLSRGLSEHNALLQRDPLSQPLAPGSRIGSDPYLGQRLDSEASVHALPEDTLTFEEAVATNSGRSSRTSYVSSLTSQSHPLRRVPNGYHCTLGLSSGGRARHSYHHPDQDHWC
human Cav2.2, sequence (P54289 25-956 partner limits assumed): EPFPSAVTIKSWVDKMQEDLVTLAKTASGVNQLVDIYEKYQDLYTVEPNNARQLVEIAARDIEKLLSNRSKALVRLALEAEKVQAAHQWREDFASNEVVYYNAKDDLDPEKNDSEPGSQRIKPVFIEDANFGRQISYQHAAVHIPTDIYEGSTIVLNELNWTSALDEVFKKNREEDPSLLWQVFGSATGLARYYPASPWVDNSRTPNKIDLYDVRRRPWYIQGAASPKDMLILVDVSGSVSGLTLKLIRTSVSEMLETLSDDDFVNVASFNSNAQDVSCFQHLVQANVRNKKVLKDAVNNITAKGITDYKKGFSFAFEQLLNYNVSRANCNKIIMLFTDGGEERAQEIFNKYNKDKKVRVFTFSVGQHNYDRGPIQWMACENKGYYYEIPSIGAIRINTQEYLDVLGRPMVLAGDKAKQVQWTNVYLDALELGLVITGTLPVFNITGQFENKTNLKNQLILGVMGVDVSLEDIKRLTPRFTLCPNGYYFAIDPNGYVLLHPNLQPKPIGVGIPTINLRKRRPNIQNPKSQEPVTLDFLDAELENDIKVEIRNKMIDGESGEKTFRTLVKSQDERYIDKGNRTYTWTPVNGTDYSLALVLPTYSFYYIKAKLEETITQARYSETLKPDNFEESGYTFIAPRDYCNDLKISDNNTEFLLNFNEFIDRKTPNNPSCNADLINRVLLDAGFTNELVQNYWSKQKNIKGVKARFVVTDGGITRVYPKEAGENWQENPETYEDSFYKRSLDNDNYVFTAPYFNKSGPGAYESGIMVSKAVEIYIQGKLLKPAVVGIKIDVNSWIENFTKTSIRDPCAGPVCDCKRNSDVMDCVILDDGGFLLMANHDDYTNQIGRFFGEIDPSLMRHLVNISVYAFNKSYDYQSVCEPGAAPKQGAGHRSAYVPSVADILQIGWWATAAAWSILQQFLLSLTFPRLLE
human Cav2.2, sequence (P54289 957-1103 partner limits assumed): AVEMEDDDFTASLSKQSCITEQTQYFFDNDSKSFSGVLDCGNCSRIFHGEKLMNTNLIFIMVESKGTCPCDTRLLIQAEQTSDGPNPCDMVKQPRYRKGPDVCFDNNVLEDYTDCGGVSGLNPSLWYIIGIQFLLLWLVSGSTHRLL
human Cav2.2, sequence (P54284 whole entry partner): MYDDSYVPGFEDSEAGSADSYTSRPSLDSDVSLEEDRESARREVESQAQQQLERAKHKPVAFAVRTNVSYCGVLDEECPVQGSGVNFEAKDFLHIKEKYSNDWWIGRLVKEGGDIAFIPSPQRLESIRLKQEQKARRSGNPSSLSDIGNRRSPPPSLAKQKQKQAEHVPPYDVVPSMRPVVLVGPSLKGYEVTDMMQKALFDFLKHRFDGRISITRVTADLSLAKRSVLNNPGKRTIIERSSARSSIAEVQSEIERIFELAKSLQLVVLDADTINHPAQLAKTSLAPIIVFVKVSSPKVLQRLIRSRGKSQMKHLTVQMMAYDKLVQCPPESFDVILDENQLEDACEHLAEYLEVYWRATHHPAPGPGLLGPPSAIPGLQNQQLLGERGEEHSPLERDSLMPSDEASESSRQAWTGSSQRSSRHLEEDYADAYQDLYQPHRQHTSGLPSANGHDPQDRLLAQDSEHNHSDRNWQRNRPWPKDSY
Conditions: not given
An outline of the steps: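 Human neuroblastoma IMR32 cells were seeded at 1−1.2×10^5 cells/well and cultured 48 h at 37 °C before FLIPR calcium influx measurement. Percent inhibition at each concentration was calculated against the no-inhibitor signal, and IC50 came from sigmoidal dose-response fits.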
As to `COc1ccc2[nH]cc(CN[C@H]3CC[C@@H]4CN(c5cccc(C(F)(F)F)n5)C[C@@H]43)c2c1` [Example 685, (3aR,4S,6aS)-N-[(5-methoxy-1H-indol-3-yl)methyl]-2-[6-(trifluoromethyl)pyridin-2-yl]octahydrocyclopenta[c]pyrrol-4-amine], the half-maximal inhibitory concentration (IC50) worked out at 1.1 µM.

For the molecule `O=S(=O)(N[C@H]1CC[C@@H]2CN(c3cccc(C(F)(F)F)n3)C[C@@H]21)c1cccc(Cl)c1` [Example 704, 3-chloro-N-{(3aR,4S,6aS)-2-[6-(trifluoromethyl)pyridin-2-yl]octahydrocyclopenta[c]pyrrol-4-yl}benzenesulfonamide], the IC50 is 4.63 µM.

`CC(C)CC(C(=O)NC1CCC2CN(Cc3ccc(C(F)(F)F)c(F)c3)CC21)N(C)C(=O)OC(C)(C)C` [Example 311, tert-butyl(S)-1-((3aS,4R,6aR)-2-(3-fluoro-4-(trifluoromethyl)benzyl)octahydrocyclopenta[c]pyrrol-4-ylamino)-4-methyl-1-oxopentan-2-ylmethyl)carbamate]: the IC50 was found to be 2.05 µM.

Consider `FC(F)(F)c1cccc(N2C[C@H]3CC[C@H](NCc4c[nH]cn4)[C@H]3C2)n1` [Example 677, (3aR,4S,6aS)-N-(1H-imidazol-4-ylmethyl)-2-[6-(trifluoromethyl)pyridin-2-yl]octahydrocyclopenta[c]pyrrol-4-amine], for which the IC50 was determined as 3.35 µM.

As for `FC(F)(F)c1cccc(N2C[C@H]3CC[C@H](NCc4c[nH]c5ccc(Cl)cc45)[C@H]3C2)n1` [Example 680, (3aR,4S,6aS)-N-[(5-chloro-1H-indol-3-yl)methyl]-2-[6-(trifluoromethyl)pyridin-2-yl]octahydrocyclopenta[c]pyrrol-4-amine], the half-inhibitory concentration (IC50) amounted to 1.66 µM.

For the molecule `O=C(N[C@H]1CC[C@H]2CN(Cc3ccccc3C(F)(F)F)C[C@H]21)C(C1CCCCC1)C1CCCCC1` [Example 60, 2,2-dicyclohexyl-N-{(3aS,4S,6aR)-2-[2-(trifluoromethyl)benzyl]octahydrocyclopenta[c]pyrrol-4-yl}acetamide], the IC50 was determined as 2.43 µM.

Consider `CN[C@H]1CC[C@@H]2CN(S(=O)(=O)c3ccc(C(F)(F)F)cc3)C[C@@H]21` [Example 301, (3aR,4S,6aS)-N-methyl-2-{[4-(trifluoromethyl)phenyl]sulfonyl}octahydrocyclopenta[c]pyrrol-4-amine], for which the IC50 is more than 9 µM.

For `CC(C)(C)C(C(=O)N[C@H]1CC[C@H]2CN(Cc3cccc(C(F)(F)F)c3)C[C@H]21)c1ccccc1` (relative stereo) [Example 123, 3,3-dimethyl-2-phenyl-N-{(3aS*,4S*,6aR*)-2-[3-(trifluoromethyl)benzyl]octahydrocyclopenta[c]pyrrol-4-yl}butanamide], the IC50 was 0.57 µM.

Take `CCC[C@H](NC(=O)OC(C)C)C(=O)N[C@H]1CC[C@@H]2CN(S(=O)(=O)c3ccc(C(F)(F)F)cc3)C[C@@H]21` [Example 279, isopropyl(S)-1-oxo-1-((3aR,4S,6aS)-2-(4-(trifluoromethyl)phenylsulfonyl)octahydrocyclopenta[c]pyrrol-4-ylamino)pentan-2-ylcarbamate]: the IC50 is more than 16.4 µM.

Regarding `CN[C@@H](CC(C)(C)C)C(=O)N[C@H]1CC[C@@H]2CN(Cc3ccccc3)C[C@@H]21` [Example 355, N^1-[(3aR,4S,6aS)-2-benzyloctahydrocyclopenta[c]pyrrol-4-yl]-N^2,4-dimethyl-L-leucinamide], the IC50 was more than 30 µM.

With `O=C(N[C@H]1CC[C@@H]2CN(c3cccc(C(F)(F)F)n3)C[C@@H]21)c1cc(Cl)c[nH]1` [Example 575, 4-chloro-N-{(3aR,4S,6aS)-2-[6-(trifluoromethyl)pyridin-2-yl]octahydrocyclopenta[c]pyrrol-4-yl}-1H-pyrrole-2-carboxamide], the IC50 was 0.7 µM.

With `CCCC[C@H](NC)C(=O)N[C@H]1CC[C@@H]2CN(Cc3ccccc3)C[C@@H]21` [Example 362, N^1-[(3aR,4S,6aS)-2-benzyloctahydrocyclopenta[c]pyrrol-4-yl]-N^2-methyl-L-norleucinamide], the IC50 was more than 30 µM.

Still in this experiment, the particulars now being: read-out: IC50 (μM) or percent inhibition (* indicates 3 minute incubation, otherwise 60 minute); IC50; 60 minute pre-incubation with compound; IMR32 cells, 80 mM KCl depolarization.
Take `O=C(N[C@H]1CC[C@H]2CN(Cc3cccnc3)C[C@H]21)C(C1CCCCC1)C1CCCCC1` [Example 73, 2,2-dicyclohexyl-N-[(3aS,4S,6aR)-2-(pyridin-3-ylmethyl)octahydrocyclopenta[c]pyrrol-4-yl]acetamide]: the IC50 is 3.26 µM.

Take `CCN(CC)[C@H]1CC[C@@H]2CN(S(=O)(=O)c3ccc(C(F)(F)F)cc3Cl)C[C@@H]21` [Example 294, (3aR,4S,6aS)-2-{[2-chloro-4-(trifluoromethyl)phenyl]sulfonyl}-N,N-diethyloctahydrocyclopenta[c]pyrrol-4-amine]: the 50% inhibitory concentration (IC50) stood at 7.8 µM.

Take `CC(C)C[C@H](NS(C)(=O)=O)C(=O)N[C@@H]1CC[C@H]2CN(Cc3ccccc3)C[C@H]21` [Example 243, N^1-[(3aS,4R,6aR)-2-benzyloctahydrocyclopenta[c]pyrrol-4-yl]-N^2-(methylsulfonyl)-L-leucinamide]: the IC50 was determined as 8.58 µM.

Turning to `CC(C)C[C@H](NC(=O)C(C)(C)C)C(=O)N[C@@H]1CC[C@H]2CN(Cc3cccc(C(F)(F)F)c3)C[C@H]21` [Example 177, N^2-(2,2-dimethylpropanoyl)-N^1-{(3aS,4R,6aR)-2-[3-(trifluoromethyl)benzyl]octahydrocyclopenta[c]pyrrol-4-yl}-L-leucinamide], the IC50 was found to be 2.64 µM.

`CC(C)(C)C(C(=O)N[C@@H]1CC[C@H]2CN(Cc3cccc(C(F)(F)F)c3)C[C@H]21)c1ccccc1` (relative stereo) [Example 147, 3,3-dimethyl-2-phenyl-N-{(3aS*,4R*,6aR*)-2-[3-(trifluoromethyl)benzyl]octahydrocyclopenta[c]pyrrol-4-yl}butanamide]: the IC50 was found to be 0.51 µM.

On to `CC(C)C(C(=O)N(C)[C@@H]1CC[C@H]2CN(Cc3ccccc3)C[C@H]21)c1ccccc1` (relative stereo) [Example 215, N-[(3aS*,4R*,6aR*)-2-benzyloctahydrocyclopenta[c]pyrrol-4-yl]-N,3-dimethyl-2-phenylbutanamide], for which the IC50 is 1.99 µM.

Regarding `CN(C(=O)OC(C)(C)C)[C@@H](CC(C)(C)C)C(=O)N(CC1CC1)[C@H]1CC[C@@H]2CN(S(=O)(=O)c3ccc(C(F)(F)F)cc3)C[C@@H]21` [Example 298], the half-inhibitory concentration (IC50) came out at 8.99 µM.

For `CC(C)C(C(=O)N[C@H]1CC[C@@H]2CN(Cc3cccc(Cl)c3)C[C@@H]21)c1ccccc1` (stereo partly drawn) [Example 86, N-[(3aR,4S,6aS)-2-(3-chlorobenzyl)octahydrocyclopenta[c]pyrrol-4-yl]-3-methyl-2-phenylbutanamide], the IC50 is 1.63 µM.

Turning to `O=S(=O)(c1cccc(C(F)(F)F)c1)N(C1CC1)[C@H]1CC[C@H]2CN(CCC(c3ccc(F)cc3)c3ccc(F)cc3)C[C@H]21` (relative stereo) [Example 203, N-{(3aS*,4S*,6aR*)-2-[3,3-bis(4-fluorophenyl)propyl]octahydrocyclopenta[c]pyrrol-4-yl}-N-cyclopropyl-3-(trifluoromethyl)benzenesulfonamide], the 50% inhibitory concentration (IC50) was 1.54 µM.

`CC(C)C(C(=O)N[C@H]1CC[C@@H]2CN(Cc3ccc(C(C)(C)C)cc3)C[C@@H]21)c1ccccc1` (stereo partly drawn) [Example 95, N-[(3aR,4S,6aS)-2-(4-tert-butylbenzyl)octahydrocyclopenta[c]pyrrol-4-yl]-3-methyl-2-phenylbutanamide]: the IC50 was found to be 1.04 µM.
